Measured values: patent US20240116985A1, “STAPLED PEPTIDES AND METHODS THEREOF” (priority 2020, published 2024)
Starred links: 1 amine or outer side, 2 acyl side, 3 side chain; linkers in the order of their positions; H or OH if unused. Positions of bridges follow the written chain, without caps; N, C: chain ends. Non-standard residues stand in square brackets, D forms with d. Residues, ends and D or L forms follow the SMILES beside them. X3 = O=C([C@]1(CC=[*:3])CCCN1[*:1])[*:2]; Bta = N[C@@H](Cc1csc2ccccc12)C(=O)O; tBuAla = CC(C)(C)C[C@H](N)C(=O)O; 3Thi = N[C@@H](Cc1ccsc1)C(=O)O; R5 = C=CCCC[C@@](C)(N)C(=O)O; S5 = C=CCCC[C@](C)(N)C(=O)O; Aib = CC(C)(N)C(=O)O

target: T1, full-length beta-Catenin (Uniprot ID P35222) (Homo sapiens, UniProt P35222); assay: Fluorescence polarization IC50 (beta-catenin / 5FAM-TCF4 10-53 competition); format: binding; conditions: fluorescence polarization; read-out: beta-Catenin FP IC50
T1 construct: 10 nM full-length beta-Catenin (Uniprot ID P35222)
T1 sequence (P35222 1-781): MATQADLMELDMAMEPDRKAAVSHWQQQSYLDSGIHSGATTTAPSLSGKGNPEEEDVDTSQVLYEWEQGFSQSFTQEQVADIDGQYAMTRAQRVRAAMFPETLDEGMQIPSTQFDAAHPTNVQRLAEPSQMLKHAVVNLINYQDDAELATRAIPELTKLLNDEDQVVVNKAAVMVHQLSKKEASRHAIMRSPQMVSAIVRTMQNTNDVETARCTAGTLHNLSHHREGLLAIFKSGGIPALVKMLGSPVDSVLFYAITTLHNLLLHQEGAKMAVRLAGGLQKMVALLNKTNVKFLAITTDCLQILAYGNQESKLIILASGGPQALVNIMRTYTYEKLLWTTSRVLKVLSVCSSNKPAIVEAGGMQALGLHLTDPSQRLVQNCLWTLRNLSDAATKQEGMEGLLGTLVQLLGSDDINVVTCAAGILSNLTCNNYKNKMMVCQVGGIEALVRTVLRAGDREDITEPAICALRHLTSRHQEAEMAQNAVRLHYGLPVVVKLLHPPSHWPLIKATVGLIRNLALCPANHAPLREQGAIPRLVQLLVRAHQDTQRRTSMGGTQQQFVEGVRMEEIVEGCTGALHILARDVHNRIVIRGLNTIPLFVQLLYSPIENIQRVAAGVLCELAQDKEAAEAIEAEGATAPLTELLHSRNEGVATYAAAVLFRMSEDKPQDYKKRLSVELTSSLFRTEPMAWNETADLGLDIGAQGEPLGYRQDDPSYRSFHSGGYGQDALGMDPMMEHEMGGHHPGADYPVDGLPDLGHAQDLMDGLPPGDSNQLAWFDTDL

First: CC(=O)N1CCC[C@]12CC=CCCC[C@@](C)(C(=O)N[C@@H](CC(=O)O)C(=O)N[C@@H](CC(=O)O)C(=O)N[C@@H](C)C(=O)N[C@@H](C)C(=O)N[C@@H](Cc1ccccc1)C(=O)N[C@]1(C)CCCC=CCCC[C@@](C)(C(=O)N[C@@H](C)C(N)=O)NC(=O)[C@H](Cc3csc4ccccc34)NC(=O)[C@H](Cc3ccsc3)NC(=O)[C@H](C)NC1=O)NC(=O)[C@H](CC(C)(C)C)NC(=O)[C@H](CC(=O)O)NC2=O [I-1778, Ac-PL3-Asp-Npg-S5-Asp-Asp-Ala-Ala-Phe-R5-Ala-3Thi-BztA-S5-Ala-NH2] (Ac-[X3]D[tBuAla][S5]DDAAF[R5]A[3Thi][Bta][S5]A-NH2; staple 1-4, 10-14 (inferred))
Second: CC(=O)N1CCC[C@]12CC=CCCC[C@@](C)(C(=O)N[C@@H](CC(=O)O)C(=O)N[C@@H](CC(=O)O)C(=O)NC(C)(C)C(=O)N[C@@H](C)C(=O)N[C@@H](Cc1ccccc1)C(=O)N[C@]1(C)CCCC=CCCC[C@@](C)(C(=O)N[C@@H](C)C(N)=O)NC(=O)[C@H](Cc3csc4ccccc34)NC(=O)[C@H](Cc3ccsc3)NC(=O)[C@H](C)NC1=O)NC(=O)[C@H](CC(C)(C)C)NC(=O)[C@H](CC(=O)O)NC2=O [I-1780, Ac-PL3-Asp-Npg-S5-Asp-Asp-Aib-Ala-Phe-R5-Ala-3Thi-BztA-S5-Ala-NH2] (Ac-[X3]D[tBuAla][S5]DD[Aib]AF[R5]A[3Thi][Bta][S5]A-NH2; staple 1-4, 10-14 (inferred))
The IC50 of the first is 2-fold lower: 2080 nM for the first, 4190 nM for the second. The first is the more potent here.

First: CC(=O)N1CCC[C@]12CC=CCCC[C@@](C)(C(=O)N[C@@H](CC(=O)O)C(=O)N[C@@H](CC(=O)O)C(=O)NC(C)(C)C(=O)N[C@@H](C)C(=O)N[C@@H](Cc1ccccc1)C(=O)N[C@]1(C)CCCC=CCCC[C@@](C)(C(=O)N[C@@H](C)C(N)=O)NC(=O)[C@H](Cc3csc4ccccc34)NC(=O)[C@H](Cc3ccsc3)NC(=O)[C@H](C)NC1=O)NC(=O)[C@H](CC(C)(C)C)NC(=O)[C@H](CC(=O)O)NC2=O [I-1781, Ac-PL3-Asp-Npg-S5-Asp-Asp-Aib-Ala-Phe-R5-Ala-3Thi-BztA-S5-Ala-NH2] (Ac-[X3]D[tBuAla][S5]DD[Aib]AF[R5]A[3Thi][Bta][S5]A-NH2; staple 1-4, 10-14 (inferred))
Second: CC(=O)N1CCC[C@]12CC=CCCCC1(CCCC=CCCOC(=O)N3CC[C@@](C(=O)N[C@@H](Cc4ccsc4)C(=O)N[C@@H](Cc4csc5ccccc45)C(=O)N[C@@H](CCC(N)=O)C(N)=O)(C3)NC(=O)[C@H](CC(N)=O)NC(=O)[C@H](Cc3ccccc3)NC(=O)[C@H](C)NC(=O)[C@H](C)NC(=O)[C@H](CC(=O)O)NC(=O)[C@H](CC(=O)O)NC1=O)NC(=O)[C@H](CC(C)(C)C)NC(=O)[C@H](CC(=O)O)NC2=O (stereo partly drawn) [I-1812, Ac-PL3-Asp-Npg-B5-Asp-Asp-Ala-Ala-Phe-Asn-PyrS1-3Thi-BztA-Gln-NH2]
The IC50 of the first is 47-fold higher: 8450 nM for the first, 181 nM for the second.

`CC(=O)N1CCC[C@]12CC=CCCCC1(CCCC=CCCCOC(=O)N3CC[C@@](C(=O)N[C@@H](Cc4ccsc4)C(=O)N[C@@H](Cc4csc5ccccc45)C(=O)N[C@@H](CCC(N)=O)C(N)=O)(C3)NC(=O)[C@H](CC(C)C)NC(=O)[C@H](Cc3ccccc3)NC(=O)[C@H](C)NC(=O)[C@H](C)NC(=O)[C@H](Cc3ccc(O)cc3)NC(=O)[C@H](CC(=O)O)NC1=O)NC(=O)[C@H](CC(C)(C)C)NC(=O)[C@H](CC(=O)O)NC2=O` (stereo partly drawn) [I-1784, Ac-PL3-Asp-Npg-B5-Asp-Tyr-Ala-Ala-Phe-Leu-PyrS2-3Thi-BztA-Gln-NH2] and `CC(=O)N1CCC[C@]12CC=CCCCC1(CCCC=CCCCOC(=O)N3CC[C@@](C(=O)N[C@@H](Cc4ccsc4)C(=O)N[C@@H](Cc4csc5ccccc45)C(=O)N[C@@H](CCC(N)=O)C(N)=O)(C3)NC(=O)[C@H](CC(C)C)NC(=O)[C@H](Cc3ccccc3)NC(=O)[C@H](C)NC(=O)[C@H](C)NC(=O)[C@H](CCc3ccc(O)cc3)NC(=O)[C@H](CC(=O)O)NC1=O)NC(=O)[C@H](CC(C)(C)C)NC(=O)[C@H](CC(=O)O)NC2=O` (stereo partly drawn) [I-1787, Ac-PL3-Asp-Npg-B5-Asp-hTyr-Ala-Ala-Phe-Leu-PyrS2-3Thi-BztA-Gln-NH2] are within 1.5-fold of each other in IC50: 528 nM for the first, 776 nM for the second.

First: CC(=O)N1CCC[C@]12CC=CCCCC1(CCCC=CCCCOC(=O)N3CC[C@@](C(=O)N[C@@H](Cc4ccsc4)C(=O)N[C@@H](Cc4csc5ccccc45)C(=O)N[C@@H](CCC(N)=O)C(N)=O)(C3)NC(=O)[C@H](CC(N)=O)NC(=O)[C@H](Cc3ccccc3)NC(=O)[C@H](C)NC(=O)[C@H](C)NC(=O)[C@H](CCc3ccc(O)cc3)NC(=O)[C@H](CC(=O)O)NC1=O)NC(=O)[C@H](CC(C)(C)C)NC(=O)[C@H](CC(=O)O)NC2=O (stereo partly drawn) [I-1785, Ac-PL3-Asp-Npg-B5-Asp-hTyr-Ala-Ala-Phe-Asn-PyrS2-3Thi-BztA-Gln-NH2]
Second: CC(=O)N1CCC[C@]12CC=CCCCC1(CCCC=CCCCOC(=O)N3CC[C@@](C(=O)N[C@@H](Cc4ccsc4)C(=O)N[C@@H](Cc4csc5ccccc45)C(=O)N[C@@H](CCC(N)=O)C(N)=O)(C3)NC(=O)[C@H](CCO)NC(=O)[C@H](Cc3ccccc3)NC(=O)[C@H](C)NC(=O)[C@H](C)NC(=O)[C@H](Cc3c[nH]c4ccccc34)NC(=O)[C@H](CC(=O)O)NC1=O)NC(=O)[C@H](CC(C)(C)C)NC(=O)[C@H](CC(=O)O)NC2=O (stereo partly drawn) [I-1789, Ac-PL3-Asp-Npg-B5-Asp-Trp-Ala-Ala-Phe-Hse-PyrS2-3Thi-BztA-Gln-NH2]
The IC50 of the first is 5.9-fold lower: 31 nM for the first, 183 nM for the second. The first is the more potent here.

Compared with `CC(=O)N1CCC[C@]12CC=CCCCC1(CCCC=CCCCOC(=O)N3CC[C@@](C(=O)N[C@@H](Cc4ccsc4)C(=O)N[C@@H](Cc4csc5ccccc45)C(=O)N[C@@H](CCC(N)=O)C(N)=O)(C3)NC(=O)[C@H](CC(C)C)NC(=O)[C@H](Cc3ccccc3)NC(=O)[C@H](C)NC(=O)[C@H](C)NC(=O)[C@H](Cc3c(F)c(F)c(F)c(F)c3F)NC(=O)[C@H](CC(=O)O)NC1=O)NC(=O)[C@H](CC(C)(C)C)NC(=O)[C@H](CC(=O)O)NC2=O` (stereo partly drawn) [I-1792, Ac-PL3-Asp-Npg-B5-Asp-Pff-Ala-Ala-Phe-Leu-PyrS2-3Thi-BztA-Gln-NH2], `CC(=O)N1CCC[C@]12CC=CCCCC1(CCCC=CCCCOC(=O)N3CC[C@@](C(=O)N[C@@H](Cc4ccsc4)C(=O)N[C@@H](Cc4csc5ccccc45)C(=O)N[C@@H](CCC(N)=O)C(N)=O)(C3)NC(=O)[C@H](CC(C)C)NC(=O)[C@H](Cc3ccccc3)NC(=O)[C@H](C)NC(=O)[C@H](C)NC(=O)[C@H](Cc3c[nH]cn3)NC(=O)[C@H](CC(=O)O)NC1=O)NC(=O)[C@H](CC(C)(C)C)NC(=O)[C@H](CC(=O)O)NC2=O` (stereo partly drawn) [I-1795, Ac-PL3-Asp-Npg-B5-Asp-His-Ala-Ala-Phe-Leu-PyrS2-3Thi-BztA-Gln-NH2] is 33-fold lower in IC50: 935 nM for the first, 28 nM for the second. The second is the more potent here.

Compared with `CC(=O)N1CCC[C@]12CC=CCCCC1(CCCC=CCCCOC(=O)N3CC[C@@](C(=O)N[C@@H](Cc4ccsc4)C(=O)N[C@@H](Cc4csc5ccccc45)C(=O)N[C@@H](CCC(=O)N4CCC(N5CCCCC5)CC4)C(N)=O)(C3)NC(=O)[C@H](CC(C)C)NC(=O)[C@H](Cc3ccccc3)NC(=O)[C@H](C)NC(=O)[C@H](C)NC(=O)[C@H](CN(CC(=O)O)CC(F)(F)F)NC(=O)[C@H](CC(=O)O)NC1=O)NC(=O)[C@H](CC(C)(C)C)NC(=O)[C@H](CC(=O)O)NC2=O` (stereo partly drawn) [I-1798, Ac-PL3-Asp-Npg-B5-Asp-TfeGA-Ala-Ala-Phe-Leu-PyrS2-3Thi-BztA-[4Pippip]GlnR-NH2], `CC(=O)N1CCC[C@]12CC=CCCCC1(CCCC=CCCCOC(=O)N3CC[C@@](C(=O)N[C@@H](Cc4ccccc4)C(=O)N[C@@H](Cc4c[nH]c5ccccc45)C(=O)N[C@@H](CCC(N)=O)C(N)=O)(C3)NC(=O)[C@H](CC(C)C)NC(=O)[C@H](Cc3ccccc3)NC(=O)[C@H](C)NC(=O)[C@H](C)NC(=O)[C@H](CC(=O)O)NC(=O)[C@H](CC(=O)O)NC1=O)NC(=O)[C@H](CC(C)C)NC(=O)[C@H](CC(=O)O)NC2=O` (stereo partly drawn) [I-1811, Ac-PL3-Asp-Leu-B5-Asp-Asp-Ala-Ala-Phe-Leu-PyrS2-Phe-Trp-Gln-NH2] is 13-fold higher in IC50: 12 nM for the first, 156 nM for the second. The first is the more potent here.

First: CC(=O)N1CCC[C@]12CCCCCC[C@@](C)(C(=O)N[C@@H](CC(=O)O)C(=O)N[C@@H](CC(=O)O)C(=O)N[C@@H](C)C(=O)N[C@@H](C)C(=O)N[C@@H](Cc1ccccc1)C(=O)N[C@@H](CC(C)C)C(=O)NC(C)(C)C(=O)N[C@@H](Cc1ccsc1)C(=O)N[C@@H](Cc1csc3ccccc13)C(=O)N[C@@H](CCC(N)=O)C(N)=O)NC(=O)[C@H](CC(C)(C)C)NC(=O)[C@H](CC(=O)O)NC2=O [I-1809, Ac-PL3-Asp-Npg-S5-Asp-Asp-Ala-Ala-Phe-Leu-Aib-3Thi-BztA-Gln-NH2]
Second: CC(=O)N1CCC[C@H]1C(=O)N[C@@H](CC(=O)O)C(=O)N[C@@H](CC(C)(C)C)C(=O)N[C@]1(C)CCCCCCCCOC(=O)N2CC[C@@](C(=O)N[C@@H](Cc3ccsc3)C(=O)N[C@@H](Cc3csc4ccccc34)C(=O)N[C@@H](CCC(N)=O)C(N)=O)(C2)NC(=O)[C@H](CC(C)C)NC(=O)[C@H](Cc2ccccc2)NC(=O)[C@H](C)NC(=O)[C@H](C)NC(=O)[C@H](CC(=O)O)NC(=O)[C@H](CC(=O)O)NC1=O [I-1810, Ac-Pro-Asp-Npg-R5-Asp-Asp-Ala-Ala-Phe-Leu-PyrS2-3Thi-BztA-Gln-NH2]
The IC50 of the first is 4.7-fold higher: 1950 nM for the first, 416 nM for the second. The second is the more potent here.
